Test results taken from patent US4789667A, “External pharmaceutical composition and methods of use” (priority 1984, dated 1988).
Like-named read-outs stand apart in the source and are kept apart here.

How the values were obtained:
[1] = test system: serum calcium level; format: in vivo; details: rabbit, nasal, 15 units/50 microliters calcitonin, 10 parts enhancer
Method: This nasal drop contained 15 units/50 microliters of calcitonin. The nasal drop in a dose of 50 microliters was administered to the nasal cavity of a New Zealand rabbit (clean). The calcium concentration in the serum after administration was measured by using a calcium measuring kit (Iatoron Co.).
They were individually administered to the nasal cavity of a rabbit, and the concentration of calcium in the serum was measured.

[2] = test system: carrageenan-induced edema; experiment: Carrageenan-induced edema inhibiting effect of betamethasone valerate ointment; format: in vivo; details: rat paw, 0.15 part betamethasone valerate, 9.85 parts enhancer, vs gel ointment base
Method: The carrageenan-induced edema inhibiting effect of the ointment was examined in accordance with the method of E. Passarella [Arzneim, Forsch. 30 (I), No. 4, pages 647-651 (1980)]. Specifically, 0.1 ml of a 1% carrageenan suspension in 0.9% NaCl solution was injected into the tip of the right paw of each rat (body weight 150-175 g). The volume of the paw was measured before the administation of carrageenan and 3, 5 and 6 hours after the carrageenan administration by a mercury displacement device. The ointment was well rubbed into the inflamed site in an amount of 100 mg.
These ointments were applied to the tip of the paw, and their edema inhibiting effects were examined.
The percent edema inhibitions were calculated on the basis of the edema formation ratio of a rat to which only the gel ointment base was administered.

[3] = test system: serum calcium level; experiment: Serum calcium after intrarectal (Asu^1.7)-eel calcitonin suppository in rats; format: in vivo; details: rat, 0.7 MRC unit calcitonin, 7 parts enhancer
Method: (Asu^1.7)-eel calcitonin was gradually added and mixed with the mixture to form a uniform composition. The composition was slightly warmed, and filled into a suppository container to form a suppository for rats having a diameter of about 3 mm and a length of about 8 mm. This suppository contained 0.7 MRC unit of calcitonin. The suppository was intrarectally administered to a rat, and the concentration of calcium in the blood serum after administration was measured by using a calcium measuring kit (made by Iatoron Co.).
For comparison, suppositories (Comparisons 76 to 87) composed of 93 parts of cacao butter, 7 parts of the various pyroglutamates shown in Table 6 and caltitonin and a suppository composed only of cacao butter and caltitonin (Comparison 88) were prepared. They wre individually administered intrarectally to rats, and the calcium concentration in the serum was measured.

[4] = dog, in vivo
[5] = test system: blood glucose level; experiment: Blood glucose after intrarectal hog insulin gelatin capsular suppository in rabbits; format: in vivo; details: rabbit, 9.6 units insulin, 10 parts enhancer
Method: Fractionated coconut oil (90 parts) and 10 parts of each of the various pyroglutamates indicated in Table 7 were uniformly mixed, and then hog insulin was gradually added to form a uniform dispersion. The dispersion was filled in a gelatin capsule for suppositoes to form a gelatin capsular suppository. The suppository contained 9.6 units of insulin. The suppository was intrarectally administered to a rabbit and the blood glucose level after administration was measured by the glucose oxidase method.
For comparison, suppositories composed of 90 parts of fractionated coconut oil, 10 parts of the various pyroglutamates indicated in Table 7 (Comparisons 89 to 102) and insulin, and a suppository composed only of fractionated coconut oil and insulin (Comparison 103) were prepared, and tested in the same way as above.

CC(C)=CCCC(C)CCOC(=O)[C@@H]1CCC(=O)N1 (stereo partly drawn) [Compound (224), Citronyl L-pyroglutamate]
Percent decrease of the serum calcium level from that before administration ([1]; 1 hr.): 9.0%
Percent decrease of the serum calcium level from that before administration ([1]; 2 hrs.): 6.3%
Percent decrease of the serum calcium level from that before administration ([1]; 3 hrs.): 2.2%
Percent decrease of the serum calcium level from that before administration ([1]; 5 hrs.): 0.6%
Edema inhibition ([2]; 3 hrs.): 19.5%
Edema inhibition ([2]; 6 hrs.): 38.8%
Edema inhibition ([2]; 9 hrs.): 38.5%
Percent decrease of the serum calcium level from that before administration ([3]; 1 hr.): 29.2%
Percent decrease of the serum calcium level from that before administration ([3]; 2 hrs.): 26.7%
Percent decrease of the serum calcium level from that before administration ([3]; 3 hrs.): 11.4%
Percent decrease of the serum calcium level from that before administration ([3]; 5 hrs.): 0.9%
Concentration of cephalothin sodium in the blood ([4]; 60 min): 0.3 µg/mL
Concentration of cephalothin sodium in the blood ([4]; 180 min): 0.4 µg/mL
Concentration of cephalothin sodium in the blood ([4]; 300 min): 0.3 µg/mL
Percent decrease of the blood glucose level from that before administration ([5]; 30 min.): 29.2%
Percent decrease of the blood glucose level from that before administration ([5]; 1 hr.): 32.1%
Percent decrease of the blood glucose level from that before administration ([5]; 2 hrs.): 18.5%
Percent decrease of the blood glucose level from that before administration ([5]; 3 hrs.): 3.1%
